“Also recorded” adds a separate entry of the source.
Experiments:
[1] = target: T1, PGT (Rattus norvegicus, UniProt Q00910); experiment: Uptake of tritium-labelled PGE1 into differentiated PC12 cells through PGT; assay type: cell-based
T1 construct: endogenous in cells; host or cells: differentiated PC12 cells
Protocol: 1) Differentiated PC12 cells and tritium-labelled PGE1 (added concentration: 0.1 μM) were subjected to 10 mins of incubation at 37° C. Afterwards, the cells were washed with ice-cold phosphate buffered saline containing 5 g/l of bovine serum albumin and next washed with ice-cold phosphate buffered saline. Then, radioactivity was measured. The amount of PGE1 uptake into PC12 cells was calculated.
2) Bromcresol green (hereinafter noted as “BrCG”), which is a PGT inhibitor, was placed together in the culture medium at the addition of PGE1. Afterwards, treatment was conducted in the same manner as mentioned in 1).
3) The antisense oligonucleotide specific to PGT cDNA was designed as follows:
Moreover, said antisense was thioate modified. Using Lipofectin (Gibco), PC12 underwent transfection during 2 days prior to the addition of PGE1. Afterwards, treatment was conducted in the same manner as mentioned in 1).

[2] = test system: SAPK/JNK; experiment: SAPK/JNK activation in PC12 cells after NGF withdrawal, Western blot; assay type: cell-based, rat; details: added with PGE1
Protocol: 4) Intercellular signals via SAPK/JNK Stress-activated protein kinase/Jun N-terminal kinase (abbreviated SAPK/JNK) is associated with apoptosis induction. Thus, intercellular signals within cells via SAPK/JNK were investigated based upon effects with respect to variations in SAPK/JNK activity.
The present experiment was performed with Western blot analysis. Individual additives were added to cell culturing medium for PC12 cells in accordance with the aforementioned experiment. Culturing was performed for 1-4 hrs after withdrawal of NGF. PC12 cells were lysed with a buffer solution, centrifuged, and the supernatant of cell lysate was prepared. After said supernatant was incubated with JNK 1 polyclonal antibodies (Santa Cruz Biotechnology) at 4° C. for 1 hr. Protein A sepharose was added to it. The resultant was incubated for 1 hr and the immunoprecipitate as described below was provided. […] of cell lysate was conducted with SDS-PAGE electrophoresis, and transferred to a nylon membrane (Amersham Pharmacia Biotech). Blotting of phosphorylated (active) JNK antibodies (Santa Cruz Biotechnology) was performed with this membrane, and bands were detected in accordance with the instruction manual. Intercellular signals within cells were amplified by chemiluminescence and auto radioactivity methods (FCL, Amersham Pharmacia Biotech).

[3] = test system: rat cerebral cortical neurons; experiment: Apoptosis induced by amyloid beta peptide in rat cerebral cortical neurons, Hoechst 33342; assay type: cell-based; details: for Inhibition of apoptosis induction (%): Experiment 7, test drug added with Aged-Aβ25-35
Protocol: The cortex region of embryonic day 17 or 18 rat cerebrum was extracted on ice. Cells were dispersed using a neuron dispersal solution (Sumilon) after sectioning. Afterwards, cells were dispersed to a density of 1.5×10^5 cells/cm^2 in a culturing flask that was coated with polyethyleneimine beforehand. After 4 days of culturing, the following experiment was provided. Therefore, as the culture medium, Neurobasal medium (Gibco) adding with B27 supplement (1/50 volume), 2-mercaptoethanol (27.5 μM), L-glutamic acid (25 μM), and glutamine (0.5 mM) was used.
Amyloid beta peptide 25-35 (Aβ25-35) was dissolved in distilled water to a concentration of 1 mM, incubated for 1 week at about 37° C., and Aged-Aβ25-35 was prepared. The induction of apoptosis in neuron was performed by the replacement of the aforementioned culture medium (with the exception of L-glutamicacid) containing 10 μM Aged-Aβ25-35.
4) It was investigated that the suppressing effect of PGE1 on apoptosis induced by amyloid beta peptide. After dissolution of PGE1 in ethanol, when the aforementioned 2) Aged-Aβ25-35 was added to the culture medium, simultaneously PGE1 solution was added to it. The final concentration thereof was 1 μM.
Cells were washed with PBS (−) at 24 hrs after induction of apoptosis and fixed for 30 mins at room temperature using a 1% glutaraldehyde solution (in PBS). Next, cell were washed with PBS (−) two times and followed by incubation with 1 mM Hoechst 33342 solution (in PBS) for 2 mins. Afterwards, observation of nuclear chromatin morphology was conducted using a fluorescence microscope with 4 arbitrary visual fields. Normal cells and apoptotic cells (cell where chromatin fragmentation or condensation was appeared) were counted, and the ratio was calculated as the incidence of apoptosis. The n was 3.
6) The relationship between PGT inhibitors and apoptosis induced by amyloid beta peptide was investigated. BrCG, which is a PGT inhibitor, with a final concentration of 60 μM was added simultaneously with PGE1 but other manners were in accordance with the aforementioned ones in 1)-5).
It was investigated that the influence of PGT antisense on the inhibitory effect of PGE1 against apoptosis induced by amyloid beta peptide. PGT antisense was used as it is with regard to the oligonucleotide in Experiment 3. The addition concentration thereof was 1.5 μM. Incidence of apoptosis was performed in accordance with Experiment 5. Then was 3.
1) Drugs having an inhibitory activity against induction of apoptosis by amyloid beta peptide were investigated. After dissolving test drugs (PGE1, PGK1, PGK2, and bicyclo PGE2) in ethanol, when Aged-Aβ25-35 was added to the culture medium, simultaneously test drug solution were added to it. But other manners were in accordance with Experiment 5. Ratio of normal cells and apoptotic cells allowed calculation of the rate of inhibition of apoptosis induction.

[4] = test system: NRK52E cells; experiment: Apoptosis induced by NO donor GSNO in NRK52E kidney cells; assay type: cell-based, rat; details: for Effect on apoptosis in kidney cells (in words): NO donor GSNO
Protocol: 1) Apoptosis was induced by NO (nitrogen monoxide) in kidney cells. NRK52E cells, which are established from a rat renal tubule epithelial cell line, mainly derived from distal were cultured for 24 hours with a chamber slide that was coated with type-I collagen. Afterwards, the cultured medium was changed to a serum-free medium, and apoptosis was induced by addition of NOC12 (0.4 mM) or S-nitroso L-glutathione (GSNO: 1 mM), which are NO donors.
4) Inhibitory effect of PGE1 to the induction of apoptosis in kidney cells was investigated PGE1 was added simultaneously with the addition of a NO donor to a final concentration of 1 or 10 μM. After 24 hrs, cells were fixed with a 1% glutaraldehyde solution and stained with Hoechst 33342. Three visual fields were selected arbitrarily per slide, and the ratio of the cells count where nuclear fragmentation and condensation appeared was calculated with respect to the total cells in the field (magnification: 400x). The n was 5.
5) The relationship between PGT inhibitors and kidney cell apoptosis induced by GSNO was examined. With a final concentration of BrCG, which is a PGT inhibitor, of 60 μM, manners other than simultaneous addition with GSNO and PGE1 were in accordance with the aforementioned ones in 4). The PGE1 final concentration was 1 μM. The n was 3.
1) Drugs having suppressing activity on apoptosis inducted in kidney cells by an NO donor were investigated. PGK1 and bicyclo PGE2 were used as test drugs, but other manners were in accordance with Experiment 8. The final concentration of the test drugs was 1 μM. The n was 5.
2) It was investigated the effects of a PGT inhibitor on the apoptosis-suppressing activity of PGK1 and bicyclo PGE2 in kidney cells. With a final concentration of BrCG, which is a PGT inhibitor, of 60 μM, manners other than simultaneous addition of GSNO and test drugs were in accordance with the aforementioned methods in 1). The n was 4.

[5] = Hypotensive effect in anesthetized normal rats, mean blood pressure; assay type: in vivo, rat; design: Decrease in blood pressure: unit not given here; details: for Decrease in blood pressure: 100 μg/kg body weight into caudal artery, mean blood pressure before and after, n 3; for Hypotensive effect (in words): dose that suppresses apoptosis sufficiently
Protocol: 2) The hypotensive effect of the test drugs was examined. After anesthetizing normal rats (male, body weight of about 300 g) with intraperitoneal administration of Nembutal, the dorsal region was fixed. Next, a cannula was inserted in the carotid artery and blood pressure was measured through a transducer (Nihon Kohden Corporation); simultaneous recording was made in combination with a polygraph (Nihon Kohden Corporation). After dissolving the test drugs in ethanol, and diluted (x200) with saline. Administration was given in the caudal artery in a dose of 100 μg/kg body weight. The mean blood pressure (MBP) was measured. The decrease in blood pressure was calculated from the measured values before and after administration. The n was 3 per group.

[6] = test system: differentiated PC12 cells; experiment: Induction of apoptosis by PGT antisense in differentiated PC12 cells, TUNEL staining; assay type: cell-based, rat
Protocol: 1) Rat adrenal pheochromocytoma PC12 cells (obtained by: ATCC; importer: Dainippon Pharmaceutical) was cultured in a Neurobasal culture medium containing mouse β NGF (100 ng/ml), N2 supplement (1%), and TIP (5 μg/ml transferrin, 5 μg/ml insulin, and 10 ng/ml progesterone). Differentiation of neuron was performed.
2) Then, antisense solution prepared in Example 6 is added (final concentration: 600 nM) and cultured for 2 days. As a negative control, Lipofectin in alone is added in the same manner and cultured for the same period of time. Apoptosis detection is performed by TUNEL staining after cell fixation (room temperature for 30 min) with a 10% neutral formalin buffer solution. Observation was made from 6 arbitrary visual fields using a light microscope. Total cells and TUNEL (apoptosis)—positive cells were counted, and the incidence of apoptosis was calculated.

[7] = Table 13, GSNO, test drug 1 μM, n 5
[8] = Tables 14 and 15, GSNO, test drug alone, n 4

Row | Amount of PGE1 uptake ([1]; PGE1 0.1 μM with BrCG 1 μM) [fmol/mg protein/10 mins] | Amount of PGE1 uptake ([1]; PGE1 0.1 μM with BrCG 1 μM (second row, printed so)) [fmol/mg protein/10 mins] | Compound | Effect on PGE1 suppression of SAPK/JNK activation (in words) [2] | Effect on PGE1 inhibition of amyloid beta peptide-induced apoptosis (in words) ([3]; BrCG 60 μM with PGE1) | Effect on apoptosis-suppressing activity of the test drug in kidney cells (in words) ([4]; BrCG 60 μM, GSNO) | Decrease in blood pressure [5] | Hypotensive effect (in words) [5] | Effect on apoptosis induced by amyloid beta peptide (in words) [3] | Inhibition of apoptosis induction (%) [3] [%] | Effect on apoptosis in kidney cells (in words) [4] | Incidence of apoptosis (%) [4, 7] [%] | Incidence of apoptosis (%) [4, 8] [%] | TUNEL-positive cells (%) ([6]; antisense 600 nM, cultured 2 days) | Induction of apoptosis (in words) ([6]; antisense addition) | Amount of PGE1 uptake ([1]; PGE1 0.1 μM, antisense 0.5 μM transfected 2 days before) [fmol/mg protein/10 mins] | Amount of PGE1 uptake ([1]; PGE1 0.1 μM, antisense 1.5 μM transfected 2 days before) [fmol/mg protein/10 mins]
1 | 60 ± 15 | 20 ± 8 | Cc1c(C2(c3cc(Br)c(O)c(Br)c3C)OS(=O)(=O)c3ccccc32)cc(Br)c(O)c1Br [BrCG, Bromcresol green] | inhibited PGE1-suppressing effect | inhibited said effect of PGE1 | inhibited apoptosis-suppressing activity by PGE1; also recorded: partially inhibited apoptosis-suppressing effect | – | – | – | – | – | – | – | – | – | – | –
2 | – | – | CCCCC[C@H](O)/C=C/[C@H]1C(=O)CC(=O)[C@@H]1CCCCCCC(=O)O [PGK1] | – | – | – | −5 | substantially causes no decrease in blood pressure | displayed activity to suppress apoptosis of neurons | 45.4 | suppressed apoptosis induced by GSNO in kidney cells | 8 ± 1 | 8 ± 1 | – | – | – | –
3 | – | – | CCCCC[C@H](O)/C=C/[C@H]1C(=O)CC(=O)[C@@H]1C/C=C\CCCC(=O)O [PGK2] | – | – | – | +2 | substantially causes no decrease in blood pressure | displayed activity to suppress apoptosis of neurons | 36.2 | – | – | – | – | – | – | –
4 | – | – | CCCCC1C(=O)CC[C@H]2[C@@H]1CC(=O)[C@@H]2C/C=C\CCCC(=O)O (stereo partly shown) [bicyclo PGE2] | – | – | – | 0 | substantially causes no decrease in blood pressure | displayed activity to suppress apoptosis of neurons | 40.6 | suppressed apoptosis induced by GSNO in kidney cells | 6 ± 1 | 9 ± 2 | – | – | – | –
5 | – | – | PGT antisense: antisense oligonucleotide specific to PGT, 5′-GGCTTGAGCAGGAGCCCCAT-3′, thioate modified, used with Lipofectin (all phosphorothioate, sugars by position and methylation of C not given here) | inhibited PGE1-suppressing effect | – | – | – | – | – | – | – | – | – | 12.9 ± 1.1 | apoptosis have been induced | 56 ± 17 | 14 ± 14

Source: patent US20020127228A1, “PGT and apoptosis” (WELFIDE CORPORATION, priority 1998, published 2002)
